The source of these data is patent publication US20250215030A1, “STAT MODULATORS AND USES THEREOF” (Recludix Pharma, Inc., priority 2022, published 2025).

Assay [1] deals with T1, Recombinant STAT6 protein (STAT6(W123-T658)) (Homo sapiens, UniProt P42226).
T1 construct: STAT6(W123-T658)
T1 sequence (P42226 123-658): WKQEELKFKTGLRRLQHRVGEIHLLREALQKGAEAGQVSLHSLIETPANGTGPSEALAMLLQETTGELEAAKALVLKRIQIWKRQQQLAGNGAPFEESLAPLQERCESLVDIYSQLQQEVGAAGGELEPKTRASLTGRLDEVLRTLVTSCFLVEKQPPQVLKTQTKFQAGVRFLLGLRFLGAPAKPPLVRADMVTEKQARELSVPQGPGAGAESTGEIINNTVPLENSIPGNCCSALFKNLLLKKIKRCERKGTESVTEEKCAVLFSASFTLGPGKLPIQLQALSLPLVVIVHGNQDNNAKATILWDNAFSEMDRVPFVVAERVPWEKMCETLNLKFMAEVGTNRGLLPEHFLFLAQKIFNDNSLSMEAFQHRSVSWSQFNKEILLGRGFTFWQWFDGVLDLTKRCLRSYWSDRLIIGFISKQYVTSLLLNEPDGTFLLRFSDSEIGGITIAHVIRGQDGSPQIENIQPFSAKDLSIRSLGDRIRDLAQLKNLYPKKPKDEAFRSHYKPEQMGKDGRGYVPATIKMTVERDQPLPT
The experiment in a line: STAT6 Fluorescence Polarization (FP) Assay. It is filed as binding. Particulars: STAT6(W123-T658) 250 nM, probe 5-FAM-ApYKPFQDLI-NH2 2 nM, 45-minute incubation. How it is done: STAT6 Fluorescence Polarization (FP) Assay
An FP assay was developed to determine IC50 values for test substances. Recombinant STAT6 protein (STAT6(W123-T658)) at 250 nM was combined with a fluorescently labeled, phosphotyrosine peptide probe (5-FAM-ApYKPFQDLI-NH2) at 2 nM in FP buffer (10 mM HEPES pH 7.4, 50 mM NaCl, 1 mM EDTA, 0.05% Tween 20, 2 mM DTT). 50 μL of STAT6-probe mixture was added to serial diluted compounds in black, 96-well plates (Greiner BioOne 655076) to a final concentration of 1% DMSO. Reaction components were mixed, and FP was measured after 45-minute incubation at room temperature using a Tecan Spark multimode plate reader. FP signal (mP) was plotted against the log concentration of the test substances and IC50 values were calculated by nonlinear regression analysis using GraphPad Prism software. For STAT6 FP assay, A=≤300 nM; B=>300-3000 nM; C=>3-30 μM; and D=>30 μM.

Assay [2] deals with T2, Recombinant STAT3 protein (STAT3(G127-I722)) (Homo sapiens, UniProt P40763).
T2 construct: STAT3(G127-I722)
T2 sequence (P40763 127-722, species assumed): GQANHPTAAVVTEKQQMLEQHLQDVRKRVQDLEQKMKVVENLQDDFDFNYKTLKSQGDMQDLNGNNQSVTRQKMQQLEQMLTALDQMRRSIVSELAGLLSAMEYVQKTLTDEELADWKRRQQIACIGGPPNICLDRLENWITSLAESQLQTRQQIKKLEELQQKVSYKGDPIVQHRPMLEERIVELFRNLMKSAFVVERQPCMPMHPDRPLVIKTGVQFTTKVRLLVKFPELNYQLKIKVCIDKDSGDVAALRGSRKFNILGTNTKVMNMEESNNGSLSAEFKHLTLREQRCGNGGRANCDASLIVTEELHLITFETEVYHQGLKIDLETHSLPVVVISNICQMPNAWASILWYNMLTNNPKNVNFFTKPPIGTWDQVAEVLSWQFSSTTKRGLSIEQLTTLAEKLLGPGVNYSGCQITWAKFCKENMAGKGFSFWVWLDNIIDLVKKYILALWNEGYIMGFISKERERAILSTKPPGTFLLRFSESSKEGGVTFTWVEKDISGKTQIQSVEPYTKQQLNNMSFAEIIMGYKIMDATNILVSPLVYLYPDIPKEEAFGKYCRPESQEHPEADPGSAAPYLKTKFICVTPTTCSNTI
The experiment in a line: STAT3 Fluorescence Polarization (FP) Assay. Conditions: STAT3(G127-I722) 25 nM, probe 5-FAM-GpYLPQTV-NH2 2 nM, 45-minute incubation. Format: binding. How it is done: STAT3 Fluorescence Polarization (FP) Assay
An FP assay was developed to determine IC50 values for test substances. Recombinant STAT3 protein (STAT3(G127-I722)) at 25 nM was combined with a fluorescently labeled, phosphotyrosine peptide probe (5-FAM-GpYLPQTV-NH2) at 2 nM in FP buffer (10 mM HEPES pH 7.4, 50 mM NaCl, 1 mM EDTA, 0.05% Tween 20, 2 mM DTT). 50 μL of STAT3-probe mixture was added to serial diluted compounds in black, 96-well plates (Greiner BioOne 655076) to a final concentration of 1% DMSO. Reaction components were mixed, and FP was measured after 45-minute incubation at room temperature using a Tecan Spark multimode plate reader. FP signal (mP) was plotted against the log concentration of the test substances and IC50 values were calculated by nonlinear regression analysis using GraphPad Prism software. For STAT3 FP assay, A=≤100 nM; B=>100-1000 nM; C=>1-10 μM; and D=>10 μM.
For orientation: In fluorescence polarisation assays a small probe gives low polarisation when free and higher when bound to something large.

What is called IC50 is the midpoint of a concentration-inhibition curve. In the case of `N#C[C@@H]1CN(C(=O)[C@@H]2CC[C@@H]3C[C@H]4C[C@H]4C[C@H](NC(=O)c4cc5cc(C(F)(F)P(=O)(O)O)ccc5s4)C(=O)N32)C[C@H]1c1ccccc1` (relative stereo) [Compound 10, ((2-(((3S,6S,7aS,8aR,9aR)-3-((rel-trans)-3-cyano-4-phenylpyrrolidine-1-carbonyl)-5-oxodecahydro-1H-cyclopropa[d]pyrrolo[1,2-a]azocin-6-yl)carbamoyl)benzo[b]thiophen-5-yl)difluoromethyl)phosphonic acid], the concentration for half-maximal inhibition (IC50) was at most 300 nM in assay [1] and 100 to 1000 nM in assay [2].

Consider `N#C[C@@H]1CN(C(=O)[C@@H]2CC[C@@H]3C[C@@H]4C[C@@H]4C[C@H](NC(=O)c4cc5cc(C(F)(F)P(=O)(O)O)ccc5s4)C(=O)N32)C[C@H]1c1ccccc1` (relative stereo) [Compound 11, ((2-(((3S,6S,7aR,8aS,9aR)-3-((rel-trans)-3-cyano-4-phenylpyrrolidine-1-carbonyl)-5-oxodecahydro-1H-cyclopropa[d]pyrrolo[1,2-a]azocin-6-yl)carbamoyl)benzo[b]thiophen-5-yl)difluoromethyl)phosphonic acid], for which the 50% inhibitory concentration (IC50) was at most 300 nM in assay [1] and 100 to 1000 nM in assay [2].

In the case of `N#C[C@H]1CN(C(=O)[C@@H]2CC[C@@H]3C[C@H]4C[C@H]4C[C@H](NC(=O)c4cc5cc(C(F)(F)P(=O)(O)O)ccc5s4)C(=O)N32)C[C@@]12C(=O)Nc1ccccc12` (single isomer, unassigned) [Compound 27], the concentration for half-maximal inhibition (IC50) in assay [1] fell in the range of 300 to 3000 nM; in assay [2], 100 to 1000 nM.

With `N#C[C@@H]1CN(C(=O)[C@@H]2CC[C@@H]3C[C@H]4C[C@H]4C[C@H](NC(=O)c4cc5cc(C(F)(F)P(=O)(O)O)ccc5s4)C(=O)N32)C[C@]12C(=O)Nc1ccccc12` (single isomer, unassigned) [Compound 28], the half-inhibitory concentration (IC50) was at most 300 nM in assay [1] and below 100 nM in assay [2].

Consider `N#C[C@@H]1CN(C(=O)[C@@H]2CC[C@@H]3[C@H]4C[C@H]4C[C@H](NC(=O)c4cc5cc(C(F)(F)P(=O)(O)O)ccc5s4)C(=O)N32)C[C@H]1c1ccccc1` (single isomer, unassigned) [Compound 66, ((2-(((3S,6S,7aS,8aS,8bR)-3-((3S,4R or 3R,4S)-3-cyano-4-phenylpyrrolidine-1-carbonyl)-5-oxodecahydrocyclopropa[c]pyrrolo[1,2-a]azepin-6-yl)carbamoyl)benzo[b]thiophen-5-yl)difluoromethyl)phosphonic acid], for which the 50% inhibitory concentration (IC50) was at most 300 nM in assay [1] and 1000 to 10000 nM in assay [2].

`O=C(N[C@H]1C[C@@H]2C[C@@H]2C[C@H]2CC[C@@H](C(=O)N3CC[C@@H](C(=O)N4CCOCC4)C3)N2C1=O)c1cc2cc(C(F)(F)P(=O)(O)O)ccc2s1` (single isomer, unassigned) [Compound 98]: the IC50 in assay [1] fell in the range of 3000 to 30000 nM; in assay [2], 100 to 1000 nM.

Turning to `O=C(N[C@H]1C[C@@H]2C[C@@H]2C[C@H]2CC[C@@H](C(=O)N3CC[C@H](C(=O)N4CCOCC4)C3)N2C1=O)c1cc2cc(C(F)(F)P(=O)(O)O)ccc2s1` (single isomer, unassigned) [Compound 99], the IC50 in assay [1] was 3000 to 30000 nM; in assay [2], 100 to 1000 nM.

Turning to `O=C(N[C@H]1C[C@H]2C[C@H]2C[C@H]2CC[C@@H](C(=O)N3CC(c4ccon4)C3)N2C1=O)c1cc2cc([C@@H](F)P(=O)(O)O)ccc2s1` (single isomer, unassigned) [Example 344], the figures for the IC50 in assay [1] and in assay [2] were 3000 to 30000 nM and below 100 nM, respectively.

Regarding `CCc1ccncc1C1CN(C(=O)[C@@H]2CC[C@@H]3C[C@@H]4C[C@@H]4C[C@H](NC(=O)c4cc5cc([C@H](F)P(=O)(O)O)ccc5s4)C(=O)N32)C1` (single isomer, unassigned) [Example 345], the values for the 50% inhibitory concentration (IC50) in assay [1] and in assay [2] were 3000 to 30000 nM and below 100 nM, respectively.

Regarding `O=C(N[C@H]1C[C@H]2C[C@H]2C[C@H]2CC[C@@H](C(=O)N3CC(c4ccon4)C3)N2C1=O)c1cc2cc([C@H](F)P(=O)(O)O)ccc2s1` (single isomer, unassigned) [Example 346], the 50% inhibitory concentration (IC50) was 3000 to 30000 nM in assay [1] and below 100 nM in assay [2].

As to `COc1ccncc1C1CN(C(=O)[C@@H]2CC[C@@H]3C[C@@H]4C[C@@H]4C[C@H](NC(=O)c4cc5cc([C@H](F)P(=O)(O)O)ccc5s4)C(=O)N32)C1` (single isomer, unassigned) [Example 353], the IC50 is 3000 to 30000 nM in assay [1] and below 100 nM in assay [2].

`COc1ccncc1C1CN(C(=O)[C@@H]2CC[C@@H]3C[C@@H]4C[C@@H]4C[C@H](NC(=O)c4cc5cc([C@@H](F)P(=O)(O)O)ccc5s4)C(=O)N32)C1` (single isomer, unassigned) [Example 354]: the IC50 is above 30000 nM in assay [1] and below 100 nM in assay [2].

With `N#CC1(c2ccccn2)CN(C(=O)[C@@H]2CC[C@@H]3C[C@@H]4C[C@@H]4C[C@H](NC(=O)c4cc5cc([C@H](F)P(=O)(O)O)ccc5s4)C(=O)N32)C1` (single isomer, unassigned) [Example 355], the concentration for half-maximal inhibition (IC50) in assay [1] is 300 to 3000 nM; in assay [2], below 100 nM.

With `N#CC1(c2ccccn2)CN(C(=O)[C@@H]2CC[C@@H]3C[C@@H]4C[C@@H]4C[C@H](NC(=O)c4cc5cc([C@@H](F)P(=O)(O)O)ccc5s4)C(=O)N32)C1` (single isomer, unassigned) [Example 356], the figures for the IC50 in assay [1] and in assay [2] were 3000 to 30000 nM and below 100 nM, respectively.

Turning to `CCc1ccncc1C1CN(C(=O)[C@@H]2CC[C@@H]3C[C@@H]4C[C@@H]4C[C@H](NC(=O)c4cc5cc([C@@H](F)P(=O)(O)O)ccc5s4)C(=O)N32)C1` (single isomer, unassigned) [Example 357], the values for the concentration for half-maximal inhibition (IC50) in assay [1] and in assay [2] were 3000 to 30000 nM and below 100 nM, respectively.

`Cc1cccc(C2CN(C(=O)[C@@H]3CC[C@@H]4C[C@@H]5C[C@@H]5C[C@H](NC(=O)c5cc6cc([C@H](F)P(=O)(O)O)ccc6s5)C(=O)N43)C2)n1` (single isomer, unassigned) [Example 370]: the figures for the concentration for half-maximal inhibition (IC50) in assay [1] and in assay [2] were 3000 to 30000 nM and below 100 nM, respectively.

On to `Cc1cccc(C2CN(C(=O)[C@@H]3CC[C@@H]4C[C@@H]5C[C@@H]5C[C@H](NC(=O)c5cc6cc([C@@H](F)P(=O)(O)O)ccc6s5)C(=O)N43)C2)n1` (single isomer, unassigned) [Example 371], for which the IC50 is 3000 to 30000 nM in assay [1] and below 100 nM in assay [2].

On to `O=C(N[C@H]1C[C@H]2C[C@H]2C[C@H]2CC[C@@H](C(=O)N3CC(c4cnccc4N4CCOCC4)C3)N2C1=O)c1cc2cc([C@@H](F)P(=O)(O)O)ccc2s1` (single isomer, unassigned) [Example 391], for which the IC50 is above 30000 nM in assay [1] and below 100 nM in assay [2].

In the case of `CN(C)c1ccncc1C1CN(C(=O)[C@@H]2CC[C@@H]3C[C@@H]4C[C@@H]4C[C@H](NC(=O)c4cc5cc([C@@H](F)P(=O)(O)O)ccc5s4)C(=O)N32)C1` (single isomer, unassigned) [Example 394], the results for the IC50 in assay [1] and in assay [2] were 3000 to 30000 nM and below 100 nM, respectively.

Regarding `O=C(N[C@H]1C[C@@H]2C[C@@H]2CC2CC[C@@H](C(=O)N3CC(c4cncnc4N4CCC4)C3)N2C1=O)c1cc2cc([C@@H](F)P(=O)(O)O)ccc2s1` (single isomer, unassigned) [Example 401], the IC50 in assay [1] is 3000 to 30000 nM; in assay [2] it was below 100 nM.

Regarding `O=C(N[C@H]1C[C@@H]2C[C@@H]2CC2CC[C@@H](C(=O)N3CC(c4cncnc4N4CCC4)C3)N2C1=O)c1cc2cc([C@H](F)P(=O)(O)O)ccc2s1` (single isomer, unassigned) [Example 402], the IC50 in assay [1] is 300 to 3000 nM; in assay [2], below 100 nM.
